Tests used:
Assay type in all cases: cell-based, human
HaCaT cells [1] = assay: ROS quantification in H2O2-treated HaCaT cells (DCFH-DA); details: 500 μg/mL H2O2 1 h, no peptide; DCFH-DA fluorescence 488/525 nm normalized per mg protein; p < 0.0001 vs control (541.25 ± 25.03 AU); mean ± SD, n = 3
Description: After digestion and resuspension, HaCaT cells were seeded into a 6-well plate at a concentration of 1 × 10^4 cells/ml, with 2 mL of culture medium added to each well. The cells were incubated for 24 h to allow attachment and adaptation. After 24 h, the cells were divided into treatment groups. The control and blank groups were replaced with an equal volume of normal culture medium, while the treatment group was incubated with a 1,000 μg/mL peptide solution for 24 h. After that, both the control and treatment groups were treated with 500 μg/mL H2O2 and incubated for an additional 1 h.
After incubation, the medium was discarded, and DCFH-DA probe was diluted in serum-free medium at a 1:1000 ratio. Then, 1.5 mL of the diluted solution was added to each well, and the cells were incubated at 37 °C in the dark for 20 min. The blank group was treated with an equal volume of serum-free medium. […] The fluorescence intensity was measured using a fluorescence spectrophotometer with an excitation wavelength of 488 nm and an emission wavelength of 525 nm. The total protein concentration of each sample was determined using the BCA method. The fluorescence value was then normalized to the fluorescence intensity per milligram of protein, and the results were statistically analyzed.

HaCaT cells [2] = details: 500 μg/mL H2O2 1 h, no peptide; CCK8, 450 nm; p < 0.0001 vs control; mean ± SD, n = 3
Description: HaCaT cell recovery, culture, and subculture were performed with reference to the method described by Yusha Zi et al., with some modifications ([23]). For recovery, cryopreserved HaCaT cells were retrieved from liquid nitrogen storage and quickly thawed in a 37 °C water bath with gentle shaking. Just before complete thawing, the tube was removed from the water bath, and the cell suspension was immediately transferred into a 15 mL centrifuge tube containing 9 mL of pre-warmed complete medium. The complete medium consisted of DMEM supplemented with 10% fetal bovine serum (FBS) and 1% penicillin–streptomycin (P/S). Cells were centrifuged at 800 rpm for 5 min at 4 °C. After discarding the supernatant, the cell pellet was resuspended in 5 mL of fresh complete medium and transferred to a culture flask equipped with a ventilated cap. Cells were incubated in a humidified incubator at 37 °C with 5% CO₂ and 95% humidity. For subculturing, when cell confluence reached approximately 80%, the medium was discarded, and the cells were gently rinsed three times with 2 mL of PBS. […] The plate was incubated for an appropriate period, and the absorbance at 450 nm was measured using a microplate reader. Cell viability was calculated using the following formula: Cell viability(%)=100%×(ODsample−ODblank)/(ODcontrol−ODblank). […] The absorbance was measured and cell viability was calculated under the same conditions.

HaCaT cells [3] = assay: CCK8 cell viability, concentration screening in HaCaT cells; details: 1 h
Description: HaCaT cell recovery, culture, and subculture were performed with reference to the method described by Yusha Zi et al., with some modifications ([23]). For recovery, cryopreserved HaCaT cells were retrieved from liquid nitrogen storage and quickly thawed in a 37 °C water bath with gentle shaking. Just before complete thawing, the tube was removed from the water bath, and the cell suspension was immediately transferred into a 15 mL centrifuge tube containing 9 mL of pre-warmed complete medium. The complete medium consisted of DMEM supplemented with 10% fetal bovine serum (FBS) and 1% penicillin–streptomycin (P/S). Cells were centrifuged at 800 rpm for 5 min at 4 °C. After discarding the supernatant, the cell pellet was resuspended in 5 mL of fresh complete medium and transferred to a culture flask equipped with a ventilated cap. Cells were incubated in a humidified incubator at 37 °C with 5% CO₂ and 95% humidity.
For subculturing, when cell confluence reached approximately 80%, the medium was discarded, and the cells were gently rinsed three times with 2 mL of PBS. Then, 1 mL of 0.25% trypsin solution was added, and the flask was incubated at 37 °C for about 1 min. Once the cells became round and partially detached (as observed under a microscope), 3 mL of complete medium was added to terminate the digestion. The cell suspension was gently pipetted to disperse the cells and transferred to a 15 mL centrifuge tube. After centrifugation at 800 rpm for 5 min at 4 °C, the supernatant was discarded. The pellet was resuspended in fresh medium and seeded into new culture flasks at a ratio of 1:3, followed by incubation under the same culture conditions.
After digestion and resuspension, HaCaT cells were seeded into a 96-well plate at a concentration of 1 × 10^^4 cells/ml, with 100 μL of complete culture medium added to each well. Three wells with no cells were treated with an equal volume of complete culture medium as the blank group. The cells were incubated for 24 h to allow attachment. For the experiment, the control and blank groups were replaced with an equal volume of fresh medium, while the treatment groups were treated with a concentration gradient of 100, 200, 500, 1,000, and 1,500 μg/mL H2O2 and peptide samples. The H2O2 group was incubated for 1 h, while the peptide sample group was incubated for 24 h. After incubation, the original medium was discarded, and 100 μL of CCK8 working solution (prepared from 90% DMEM + 10% CCK8 reagent) was added to each well. The blank group, which contained no cells, was used as the reference. The plate was incubated for an appropriate period, and the absorbance at 450 nm was measured using a microplate reader. Cell viability was calculated using the following formula:
Cell viability(%)=100%×(ODsample−ODblank)/(ODcontrol−ODblank).

## OO [H₂O₂, hydrogen peroxide]
HaCaT cells [1]
  ROS level, H2O2 alone: 2128.33 ± 127.37 AU
HaCaT cells [2]
  HaCaT cell viability, H2O2 alone: 47.82 ± 1.87%
HaCaT cells [3]; H2O2 200 μg/mL, CCK8, vs control, p < 0.01
  effect on HaCaT cell viability at 200 μg/mL H2O2: A significant reduction
HaCaT cells [3]; H2O2 500 μg/mL, CCK8, 450 nm, mean ± SD, n = 3
  HaCaT cell viability after 500 μg/mL H2O2 (screening): 49.05 ± 4.24%
HaCaT cells [3]; H2O2 1500 μg/mL, CCK8, 450 nm
  dead HaCaT cells at 1500 μg/mL H2O2: over 90%
